The text below walks through data of patent US8592405B2, “Synergistic antimicrobial composition” (Dow Global Technologies LLC, priority 2009, dated 2013).

Common to all, as to assay type: cell-based
Test [1] deals with Calothrix parientina (Cp). Kind of test: Algal efficacy testing, modified ASTM 5589 (12-well, dry paint film). Particulars: three weeks; for % inhibition: at the Total conc; for Total conc, ppm: total biocide in paint taken as minimum inhibitory concentration. The procedure:
(§1) Samples of white acrylic latex paint free of biocides were prepared in 50 ml aliquots. Each biocide was post added to give the necessary active ingredient concentration in the paint. The total biocides concentrations tested were 750, 1500, 2500 and 5000 ppm. After biocides addition, each sample was hand mixed for a minimum of 30 sec, followed by a 3 min run on the paint shaker (RED DEVIL). Each of the paint samples as well as a control sample (containing no biocide) were used to prepare films on black plastic-vinyl chloride/acetate copolymer panels (LENETA, Mahwah, N.J.) using a 3 mil bird bar applicator. The panels were thoroughly dried for 5 days avoiding direct exposure to sunlight. Square discs (15 mm^2) were cut out from each panel and were used as the substrate for fungal and algal efficacy tests. This sample size allowed for an agar border when the sample disc was placed into the well of the test plate.
(§2) The appropriate media (BOLD'S 3N for Chlorophytes, BG-11 for Cyanobacteria, and PDA for fungi) were used to support microbial growth. The test plates were maintained at room temp (25° C.-26° C.), in a cycled light-dark environment, for 3 weeks for algae. Plates for fungal challenge tests were maintained at 30C for three weeks. At the end of incubation period the samples were scored for percent area covered by visible microbial growth.
(§3) ASTM 5589 is a standard accelerated test method for determining resistance of various coatings (including paints) to algal defacement. To accommodate for high-throughput screening, this method was scaled down from petri plates to 12-well plates. A single coupon was placed with a pair of sterile forceps at the center of the agar plug (on top) with the painted surface facing upwards. Each well was inoculated with 150 μl of organism (1×10^8 cfu/ml) making sure that the whole surface (paint film as well as the agar surrounding it) was evenly covered. The plates were incubated at room temp (25° C.-26° C.) with cyclic exposure to light (OTT-Lite model #OTL4012P, 40 Watt, 26 KLumen) and dark phases, for a period of three weeks. The total area covered was evaluated at the end of each week according to percent area covered in 5% increments. While rating the plates, notations were made for zones of inhibition.
(§4) The SI is calculated based on F. C. Kull et.

The test system of test [2] is Chlorella sp. + Chlorella kessleri (Cs + Ck). The description is as above. Particulars: three weeks; for % inhibition: at the Total conc; for Total conc, ppm: total biocide in paint taken as minimum inhibitory concentration. The procedure: as §1, §2, §3, §4
The subject of another test is Nostoc commune (Nc). The test is described as above. To be noted: three weeks; for % inhibition: at the Total conc; for Total conc, ppm: total biocide in paint taken as minimum inhibitory concentration. Here is the method:
as §1, §2, §3, §4

A further test deals with Oscillatoria sp. (Os). The description is as above. To be noted: three weeks; for % inhibition: at the Total conc; for Total conc, ppm: total biocide in paint taken as minimum inhibitory concentration. Here is the method: as §1, §2, §3, §4
For test [3], the system named is Trentepohlia aurea + Trentepohlia odorata (Ta + To). The test is described as above. Particulars: three weeks; for % inhibition: at the Total conc; for Total conc, ppm: total biocide in paint taken as minimum inhibitory concentration. The procedure: as §1, §2, §3, §4
For test [4], the system named is Aa + Ap (Alternaria alternata + Aureobasidium pullulans). Kind of test: Fungal efficacy testing, modified ASTM 5590 (6-well, mixed inoculum, Example 4). Particulars: four weeks; for Total conc, ppm: Aa + Ap mixed inoculum, NE = no end point at the concentration tested; for % inhibition: Aa + Ap, at the Total conc. The procedure:
[The source words this procedure for another target and reports this target under the same test.] as §4
(§5) A single or blend of biocides was post added into white acrylic latex paint free of biocides to give a maximum total active ingredient/s concentration tested. This paint was then diluted with a biocide free acrylic latex paint at concentrations range of 75 to 12.5% w/w to give desired concentrations for the testing. Depending on the type of biocide blends tested, the total biocides concentrations varies from 200 to 5000 ppm. After biocides addition or dilution each sample was hand mixed for at least a minute until uniformity is achieved. Each of the paint samples as well as a control sample (containing no biocide) were used to prepare films on black plastic-vinyl chloride/acetate copolymer panels (LENETA, Mahwah, N.J.) using a 3 mil bird bar applicator. The panels were thoroughly dried for at least 2 days avoiding direct exposure to sunlight. Square discs (0.5 inch^2, 13 mm^2) were cut out from each panel and were used as the substrate for fungal and algal efficacy tests. This sample size allowed for an agar border when the sample disc was placed into the well of the test plate. Each sample was tested in duplicate
(§6) The appropriate media (BOLD'S 3N for Chlorophytes, BG-11 for Cyanobacteria, and PDA for fungi) were used to support microbial growth. The test plates were maintained at room temp (25° C.-26° C.), in a cycled light-dark environment, for four weeks for algae. Plates for fungal challenge tests were maintained at 30 C for four weeks. At the end of the incubation period the samples were scored for percent area covered by visible microbial growth.
(§7) ASTM 5590 is a standard accelerated test method for determining resistance of various coatings (including paints) to fungal defacement. To accommodate for high-throughput screening, this method was scaled down from petri plates to 6-well plates. To set up the test, an agar plug was placed at the bottom of each well of the sterile 6-well plate. A single coupon was placed with a pair of sterile forceps at the center of the agar plug (on top) with the painted surface facing upwards. Fungal inoculums were prepared by mixing equal concentrations (1×10^6 cfu/ml) and equal volumes (depending on number of samples to be tested) of like growing organisms. Cladosporium herbarum was mixed with Aureobasidium pullulans. Aspergillus niger was mixed with Penicillium funiculosum. Alternaria alternata was mixed with Trichoderma viride. Each well was inoculated with 400 μl of organism mixture (1×10^6 cfu/ml) making sure that the whole surface (paint film as well as the agar surrounding it) was evenly covered. The plates were incubated at 30° C. in presence of moisture, for a period of four weeks. The total percent area covered was evaluated and recorded at the end of each week after the 2nd week and recorded in increments of 5%.

Test [5] relates to An + Pf (Aspergillus niger + Penicillium funiculosum). The test is described as above. To be noted: four weeks; for Total conc, ppm: An + Pf mixed inoculum, NE = no end point at the concentration tested; for % inhibition: An + Pf, at the Total conc. The procedure: as §4, §5, §6, §7
For test [6], the system named is Ch + Tv (Cladosporium herbarum + Trichoderma viride). The description is as above. To be noted: four weeks. The procedure:
[The source words this procedure for another target and reports this target under the same test.] as §4, §5, §6, §7

For the next test, the system named is Gleocapsa sp. (Gs). Description: Algal efficacy testing, modified ASTM 5589 (12-well, dry paint film). To be noted: three weeks; for % inhibition: at the Total conc; for Total conc, ppm: total biocide in paint taken as minimum inhibitory concentration. The procedure: as §1, §2, §3, §4
The subject of a further test is Trichoderma viride (Tv). Kind of test: Fungal efficacy testing, modified ASTM 5590 (12-well, dry paint film). Particulars: three weeks; for % inhibition: at the Total conc; for Total conc, ppm: total biocide in paint taken as minimum inhibitory concentration, 30 C. Here is the method:
as §1, §2
as §7, with “12-well” for “6-well”, “upwards.” for “upwards. Fungal inoculums were prepared by mixing equal concentrations (1×10^6 cfu/ml) and equal volumes (depending on number of samples to be tested) of like growing organisms. Cladosporium herbarum was mixed with Aureobasidium pullulans. Aspergillus niger was mixed with Penicillium funiculosum. Alternaria alternata was mixed with Trichoderma viride.”, “150” for “400”, “organism” for “organism mixture”, “three” for “four”
as §4

SMILES strings stand for the structures. Several values for one entry are separate records, joined by “and”; a condition that tells them apart may be missing. Equal values may be shown once.

Turning to `CN(C)C(=O)Nc1cccc(C(F)(F)F)c1` [Fluometuron, 1,1-dimethyl-3-(α,α,α-trifluoro-m-tolyl)urea], the “% inhibition” value was 100% and 95% and 90% in test [1]; 100% and 90.00% and 80% in test [2]; 100% and 90% and 85% in the test with Nostoc commune (Nc); 95% and 62.5% and 82.5% with Oscillatoria sp. (Os); 95% and 82.5% and 62.5% in test [3]; 0% in [4]. Further, the “% inhibition” value in [5] amounted to 0%; in test [6] (Ch + Tv, at the Total conc), 0%. The “Total conc, ppm” value in [1] was 750 ppm; in the test on Nostoc commune (Nc), 750 ppm; in [3] it was 750 ppm and 1500 ppm; in test [4], 5000 ppm; in test [5], 5000 ppm; in [6] (Ch + Tv mixed inoculum, NE = no end point at the concentration tested), 5000 ppm.
As for `CCCCCCCCn1sc(Cl)c(Cl)c1=O` [DCOIT, 4,5-dichloro-2-n-octyl-4-isothiazolin-3-one], the “% inhibition” value in test [1] stood at 75%; in test [2], 70%; with Gleocapsa sp. (Gs), 77.5%; with Nostoc commune (Nc), 82.5%; in the test with Oscillatoria sp. (Os), 80%; in [3], 72.5%. For the same compound, the entries for the “% inhibition” value (with Trichoderma viride (Tv); in test [4]) were 60% and 100%, respectively. In addition, the “Total conc, ppm” value in test [1] turned out to be 1500 ppm; in test [2], 1500 ppm; with Gleocapsa sp. (Gs) it was 2500 ppm; in the test on Nostoc commune (Nc), 750 ppm; with Oscillatoria sp. (Os), 750 ppm; in test [3] it was 1500 ppm. For the same compound, the “Total conc, ppm” value in the test on Trichoderma viride (Tv) stood at 2500 ppm; in test [4], 862.5 ppm.
For `Cc1ccc(S(=O)(=O)C(I)I)cc1` [DIMTS, diiodomethyl-p-tolylsulfone], the “% inhibition” value is given as 85% in test [1]; 70% in test [2]; 80% in the test with Gleocapsa sp. (Gs); 80% with Nostoc commune (Nc); 80% in the test on Oscillatoria sp. (Os); 62.5% in test [3]. Further, the “% inhibition” value with Trichoderma viride (Tv) is recorded as 90%; in test [4] it was 100%; in [5], 100%. Also, the “Total conc, ppm” value in test [1] came to 1500 ppm; in test [2], 2500 ppm; in the test on Gleocapsa sp. (Gs), 2500 ppm; in the test with Nostoc commune (Nc) it was 5000 ppm; in the test with Oscillatoria sp. (Os) it was 1500 ppm; in [3], 2500 ppm. Besides, the results for the “Total conc, ppm” value (in the test on Trichoderma viride (Tv); in test [4]; in test [5]) were 750 ppm, 1250 ppm and 1250 ppm, respectively.
